Reference: patent publication US20130203778A1, “PHARMACEUTICAL COMPOSITION COMPRISING A PYRIMIDINEONE DERIVATIVE” (Glenmark Pharmaceuticals S.A., priority 2010, published 2013)

Columns and labels:
[1] = Solubility of Compound I with various hydrophilic carriers and in solid dispersion composition form at 25° C. (HPLC assay); assay type: physicochemical
Experimental: Buffers were prepared as per USP. Compound I (100 mg) equivalent was added to various buffers (100 ml) in presence of various hydrophilic carriers. The samples were sonicated for 15 minutes. A solid dispersion composition form of Compound I was also evaluated for solubility on similar lines. Quantification was done by assay method on HPLC by comparison with standard solution. The assay provided the relative amount of drug (mg/ml) in the sample solution. The results were extrapolated to represent the solubility in 900 ml of buffer solutions.
Preparation of Test solution: Compound I (100 mg) was added to various buffers (100 ml) in presence of various surfactants. The samples were sonicated for 15 minutes. Evaluation was done by assay method on HPLC by comparison with standard solution.
Mixture of 0.01M Ammonium Acetate Buffer and Acetonitrile in the ratio of 20:80% v/v.
Mixture of water and acetonitrile in the ratio of 20:80 v/v.
Column: Hypersil BDS C18, 150×4.6 mm, 5 μm
Column temperature: 25° C.

[2] = Qualitative solubility of Compound I in water and organic solvents; assay type: physicochemical
[3] = with Cetrimide, ratio (w/w) 1:10
[4] = with Cremophor EL, ratio (w/w) 1:10
[5] = with Gelucire 44/14, ratio (w/w) 1:10
[6] = with Hydroxypropyl beta-cyclodextrin, ratio (w/w) 1:10, BLD = Below limit of detection (0.01 ppm)
[7] = with Labrafil, ratio (w/w) 1:10
[8] = with Labrasol, ratio (w/w) 1:10
[9] = with Poloxamer 407, Compound I to carrier ratio (w/w) 1:1
[10] = with Sodium lauryl sulphate, ratio (w/w) 1:5, BLD = Below limit of detection (0.01 ppm)
[11] = with Tween 80, ratio (w/w) 1:10
[12] = with Tween 80, ratio (w/w) 1:30
[13] = with Vitamin E TPGS, ratio (w/w) 1:10
[14] = without hydrophilic carrier (1:0), BLD = Below limit of detection (0.01 ppm)

For `COc1cccc(/C=C/c2nc3sccn3c(=O)c2-c2ccc(OC(F)(F)F)cc2)c1OCC1CC1` [Compound I, 7-{(E)-2-[2-(cyclopropylmethoxy)-3-methoxyphenyl]vinyl}-6-(4-trifluoromethoxyphenyl)-5H-[1,3]thiazolo-[3,2-a]pyrimidin-5-one], the “Solubility, Acetate Buffer pH 4.5” value [1, 3] was 0.27 mg/900 ml, the “Solubility, Phosphate Buffer pH 6.8” value [1, 3] was 0.45 mg/900 ml and the “Solubility, Simulated gastric fluid pH 1.2” value [1, 3] was 0.54 mg/900 ml. The “Solubility, Acetate Buffer pH 4.5” value [1, 4] was 2.61 mg/900 ml, the “Solubility, Phosphate Buffer pH 6.8” value [1, 4] was 2.52 mg/900 ml and the “Solubility, Simulated gastric fluid pH 1.2” value [1, 4] was 0.54 mg/900 ml. For the same molecule, the “Solubility, Acetate Buffer pH 4.5” value [1, 5] was 1.17 mg/900 ml, the “Solubility, Phosphate Buffer pH 6.8” value [1, 5] was 0.99 mg/900 ml and the “Solubility, Simulated gastric fluid pH 1.2” value [1, 5] was 0.09 mg/900 ml. The “Solubility, Acetate Buffer pH 4.5” value ([1]; with HPMC, ratio (w/w) 1:5) was 0.18 mg/900 ml, the “Solubility, Phosphate Buffer pH 6.8” value ([1]; with HPMC, ratio (w/w) 1:5) was 0.81 mg/900 ml and the “Solubility, Simulated gastric fluid pH 1.2” value ([1]; with HPMC, ratio (w/w) 1:5) was 0.72 mg/900 ml. The “Solubility, Acetate Buffer pH 4.5” value [1, 6] was “BLD”, the “Solubility, Phosphate Buffer pH 6.8” value [1, 6] was “BLD” and the “Solubility, Simulated gastric fluid pH 1.2” value [1, 6] was “BLD”. The “Solubility, Acetate Buffer pH 4.5” value [1, 7] was 0.27 mg/900 ml, the “Solubility, Phosphate Buffer pH 6.8” value [1, 7] was 0.18 mg/900 ml and the “Solubility, Simulated gastric fluid pH 1.2” value [1, 7] was 0.09 mg/900 ml. For the same molecule, the “Solubility, Acetate Buffer pH 4.5” value [1, 8] was 0.18 mg/900 ml, the “Solubility, Phosphate Buffer pH 6.8” value [1, 8] was 0.72 mg/900 ml and the “Solubility, Simulated gastric fluid pH 1.2” value [1, 8] was 0.36 mg/900 ml. For the same molecule, the “Solubility, Acetate Buffer pH 4.5” value [1, 9] was 0.18 mg/900 ml, the “Solubility, Phosphate Buffer pH 6.8” value [1, 9] was 0.09 mg/900 ml and the “Solubility, Simulated gastric fluid pH 1.2” value [1, 9] was 0.27 mg/900 ml. For the same molecule, the “Solubility, Acetate Buffer pH 4.5” value [1, 10] was “BLD”, the “Solubility, Phosphate Buffer pH 6.8” value [1, 10] was “BLD” and the “Solubility, Simulated gastric fluid pH 1.2” value [1, 10] was “BLD”. The “Solubility, Acetate Buffer pH 4.5” value [1, 11] was 3.06 mg/900 ml, the “Solubility, Phosphate Buffer pH 6.8” value [1, 11] was 3.69 mg/900 ml and the “Solubility, Simulated gastric fluid pH 1.2” value [1, 11] was 0.45 mg/900 ml. For the same molecule, the “Solubility, Acetate Buffer pH 4.5” value [1, 12] was 8.82 mg/900 ml, the “Solubility, Phosphate Buffer pH 6.8” value [1, 12] was 15.84 mg/900 ml and the “Solubility, Simulated gastric fluid pH 1.2” value [1, 12] was 1.44 mg/900 ml. For the same molecule, the “Solubility, Acetate Buffer pH 4.5” value [1, 13] was 1.35 mg/900 ml, the “Solubility, Phosphate Buffer pH 6.8” value [1, 13] was 1.80 mg/900 ml and the “Solubility, Simulated gastric fluid pH 1.2” value [1, 13] was 0.63 mg/900 ml. For the same molecule, the “Solubility, Acetate Buffer pH 4.5” value [1, 14] was “BLD”, the “Solubility, Phosphate Buffer pH 6.8” value [1, 14] was “BLD” and the “Solubility, Simulated gastric fluid pH 1.2” value [1, 14] was “BLD**”. The Solubility in acetone [2] was “freely soluble”, the Solubility in chloroform [2] was “freely soluble” and the Solubility in ethanol [2] was “very slightly soluble”. The Solubility in methanol [2] was “slightly soluble”, the “Solubility in methylene dichloride” value [2] was “freely soluble” and the Solubility in water ([2]; aqueous media having different pH ranging over 1.2 to 6.8) was “practically insoluble”.
